From patent publication US20220119354A1, “DIAMINO-SUBSTITUTED PYRIDINES AND PYRIMIDINES AS HERBICIDES” (FMC Corporation, priority 2019, published 2022)

Key:
Type in all cases: in vivo
[1] = system: barnyardgrass (Echinochloa crus-galli); test: Test A preemergence, barnyardgrass; conditions: 0 to 100 scale; for Barnyardgrass plant response rating: 0 is no effect, 100 is complete control
How it was run: (§1)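 Using a solvent/surfactant formulation, test chemicals were sprayed onto freshly seeded soil or onto 2–10 cm seedlings at the one- to two-leaf stage. Visual injury ratings on a 0–100 scale were made about 10 d later in the greenhouse.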

[2] = system: kochia (Kochia scoparia); test: Test A preemergence, kochia; conditions: 0 to 100 scale; for Kochia plant response rating: 0 is no effect, 100 is complete control
How it was run: as §1

[3] = system: ragweed (common ragweed, Ambrosia elatior); test: Test A preemergence, ragweed; conditions: 0 to 100 scale; for Ragweed plant response rating: 0 is no effect, 100 is complete control
How it was run: as §1

[4] = system: ryegrass, Italian (Lolium multiflorum); test: Test A preemergence, Italian ryegrass; conditions: 0 to 100 scale; for Ryegrass, Italian plant response rating: 0 is no effect, 100 is complete control
How it was run: as §1

[5] = system: foxtail, giant (Setaria faberii); test: Test A preemergence, giant foxtail; conditions: 0 to 100 scale; for Foxtail, Giant plant response rating: 0 is no effect, 100 is complete control
How it was run: as §1

[6] = system: pigweed (Amaranthus retroflexus); test: Test A preemergence, pigweed; conditions: 0 to 100 scale; for Pigweed plant response rating: 0 is no effect, 100 is complete control
How it was run: as §1

[7] = system: barnyardgrass (Echinochloa crus-galli); test: Test A postemergence, barnyardgrass; conditions: 0 to 100 scale
How it was run: as §1

[8] = system: kochia (Kochia scoparia); test: Test A postemergence, kochia; conditions: 0 to 100 scale
How it was run: as §1

[9] = system: ragweed (common ragweed, Ambrosia elatior); test: Test A postemergence, ragweed; conditions: 0 to 100 scale
How it was run: as §1

[10] = system: ryegrass, Italian (Lolium multiflorum); test: Test A postemergence, Italian ryegrass; conditions: 0 to 100 scale
How it was run: as §1

[11] = system: foxtail, giant (Setaria faberii); test: Test A postemergence, giant foxtail; conditions: 0 to 100 scale
How it was run: as §1

[12] = system: pigweed (Amaranthus retroflexus); test: Test A postemergence, pigweed; conditions: 0 to 100 scale
How it was run: as §1

[13] = system: wheat (Triticum aestivum); test: Test A postemergence, wheat; conditions: 0 to 100 scale
How it was run: as §1

[14] = system: corn (Zea mays); test: Test A postemergence, corn; conditions: 0 to 100 scale
How it was run: as §1

[15] = system: blackgrass (Alopecurus myosuroides); test: Test A postemergence, blackgrass; conditions: 0 to 100 scale
How it was run: as §1

[16] = system: galium (catchweed bedstraw, Galium aparine); test: Test A postemergence, galium; conditions: 0 to 100 scale
How it was run: as §1

[17] = system: rice (Oryza sativa); test: Test B flooded paddy test, rice; conditions: Flood, 250 g ai/ha, applied to paddy water, 2-leaf stage, visual evaluation after 13 to 15 d
How it was run: (§2)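 Visual injury scores run from 0 (no effect) to 100 (complete control), assigned by comparison with controls 13 to 15 d after treatment. Treatment went into floodwater standing 3 cm over the soil of pots holding 2-leaf plants.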

[18] = system: sedge, umbrella (small-flower umbrella sedge, Cyperus difformis); test: Test B flooded paddy test, umbrella sedge; conditions: Flood, 250 g ai/ha, applied to paddy water, 2-leaf stage, visual evaluation after 13 to 15 d
How it was run: as §2

[19] = system: ducksalad (Heteranthera limosa); test: Test B flooded paddy test, ducksalad; conditions: Flood, 250 g ai/ha, applied to paddy water, 2-leaf stage, visual evaluation after 13 to 15 d
How it was run: as §2

[20] = system: barnyardgrass (Echinochloa crus-galli); test: Test B flooded paddy test, barnyardgrass; conditions: Flood, 250 g ai/ha, applied to paddy water, 2-leaf stage, visual evaluation after 13 to 15 d
How it was run: as §2

[21] = 125 g ai/ha, 0 no effect, 100 complete control
[22] = 500 g ai/ha, 0 no effect, 100 complete control

C[C@H](Nc1ncc(C(F)(F)F)c(N)n1)c1cc2ccccc2s1 [Compound 5]
90: Plant response rating, Pigweed ([12]; 500 g ai/ha)
0: Plant response rating, Barnyardgrass ([1]; 125 g ai/ha) | Plant response rating, Barnyardgrass ([1]; 500 g ai/ha) | Plant response rating, Kochia ([2]; 125 g ai/ha) | Plant response rating, Kochia ([2]; 500 g ai/ha) | Plant response rating, Ragweed ([3]; 125 g ai/ha) | Plant response rating, Ragweed ([3]; 500 g ai/ha) | Plant response rating, Foxtail, Giant ([5]; 125 g ai/ha) | Plant response rating, Pigweed ([6]; 125 g ai/ha) | Plant response rating, Barnyardgrass ([7]; 125 g ai/ha) | Plant response rating, Barnyardgrass ([7]; 500 g ai/ha) | Plant response rating, Kochia ([8]; 125 g ai/ha) | Plant response rating, Ragweed ([9]; 125 g ai/ha) | Plant response rating, Ryegrass, Italian ([10]; 125 g ai/ha) | Plant response rating, Ryegrass, Italian ([10]; 500 g ai/ha) | Plant response rating, Foxtail, Giant ([11]; 125 g ai/ha) | Plant response rating, Foxtail, Giant ([11]; 500 g ai/ha) | Plant response rating, Wheat ([13]; 125 g ai/ha) | Plant response rating, Wheat ([13]; 500 g ai/ha) | Plant response rating, Corn ([14]; 500 g ai/ha) | Plant response rating, Blackgrass ([15]; 125 g ai/ha) | Plant response rating, Blackgrass ([15]; 500 g ai/ha) | Plant response rating, Galium ([16]; 125 g ai/ha) | Plant response rating, Rice (0 to 100 scale, 0 is no effect, 100 is complete control) [17] | Plant response rating, Sedge, Umbrella (0 to 100 scale, 0 is no effect, 100 is complete control) [18] | Plant response rating, Ducksalad (0 to 100 scale, 0 is no effect, 100 is complete control) [19] | Plant response rating, Barnyardgrass (0 to 100 scale, 0 is no effect, 100 is complete control) [20]
20: Plant response rating, Ryegrass, Italian ([4]; 125 g ai/ha) | Plant response rating, Ryegrass, Italian ([4]; 500 g ai/ha) | Plant response rating, Kochia ([8]; 500 g ai/ha) | Plant response rating, Pigweed ([12]; 125 g ai/ha)
10: Plant response rating, Foxtail, Giant ([5]; 500 g ai/ha) | Plant response rating, Ragweed ([9]; 500 g ai/ha) | Plant response rating, Corn ([14]; 125 g ai/ha)
40: Plant response rating, Galium ([16]; 500 g ai/ha)
50: Plant response rating, Pigweed ([6]; 500 g ai/ha)

C[C@H](Nc1ncc(C(F)(F)F)c(N)n1)c1coc2ccc(F)cc12 [Compound 56]
40: Plant response rating, Kochia [8, 22]
10: Plant response rating, Foxtail, Giant [11, 21] | Plant response rating, Corn [14, 22]
80: Ragweed plant response rating ([3]; 500 g ai/ha)
70: Barnyardgrass plant response rating ([1]; 125 g ai/ha) | Barnyardgrass plant response rating ([1]; 500 g ai/ha)
30: Pigweed plant response rating ([6]; 500 g ai/ha) | Plant response rating, Barnyardgrass [7, 22] | Plant response rating, Ragweed [9, 22]
60: Plant response rating, Pigweed [12, 22]
0: Kochia plant response rating ([2]; 125 g ai/ha) | Kochia plant response rating ([2]; 500 g ai/ha) | Ryegrass, Italian plant response rating ([4]; 125 g ai/ha) | Ryegrass, Italian plant response rating ([4]; 500 g ai/ha) | Foxtail, Giant plant response rating ([5]; 125 g ai/ha) | Foxtail, Giant plant response rating ([5]; 500 g ai/ha) | Pigweed plant response rating ([6]; 125 g ai/ha) | Plant response rating, Kochia [8, 21] | Plant response rating, Ragweed [9, 21] | Plant response rating, Ryegrass, Italian [10, 21] | Plant response rating, Ryegrass, Italian [10, 22] | Plant response rating, Wheat [13, 21] | Plant response rating, Wheat [13, 22] | Plant response rating, Corn [14, 21] | Plant response rating, Blackgrass [15, 21] | Plant response rating, Blackgrass [15, 22] | Plant response rating, Galium [16, 21] | Plant response rating, Galium [16, 22] | Plant response rating, Rice (0 to 100 scale, 0 is no effect, 100 is complete control) [17] | Plant response rating, Sedge, Umbrella (0 to 100 scale, 0 is no effect, 100 is complete control) [18] | Plant response rating, Ducksalad (0 to 100 scale, 0 is no effect, 100 is complete control) [19] | Plant response rating, Barnyardgrass (0 to 100 scale, 0 is no effect, 100 is complete control) [20]
50: Plant response rating, Barnyardgrass [7, 21]
20: Ragweed plant response rating ([3]; 125 g ai/ha) | Plant response rating, Foxtail, Giant [11, 22] | Plant response rating, Pigweed [12, 21]
